The values that follow come from patent US20030109546A1, “Treatment of psychotic disorders comprising co-therapy with anticonvulsant derivatives and atypical antipsychotics” (priority 2001, published 2003).

The test system of data set [1] is schizophrenia. As to the kind of experiment: Example 3 case study: augmentation of clozapine treatment. The class given is in vivo, human. The source says:
The patient was a morbidly obese person, who was first hospitalized in 1966 for psychotic symptoms, leading to a psychiatric diagnosis of schizophrenia. Their primary symptoms consisted of a set of strange and elaborate ideas about transmitting their thoughts to others, thoughts that they had invented “invisible steel” which was being used by the CIA and aliens, and a high degree of suspiciousness about the discriminatory intent of their clergyman and the local police. They denied any overt hallucinations, although they acknowledged “weird noises” associated with aliens attempting to contact them. At initial hospitalization, the patient was also profoundly confused and disorganized in their thought processes. Over the next two decades they were hospitalized four more times with essentially this same clinical picture, eventually being admitted in 1989 to a state hospital for long-term treatment where they remain to this day.
During their five hospitalizations the patient was treated with a variety of anti-psychotic medications, often in various combinations and dosages. In 1994 they were characterized as being treatment refractory according to the Kane criteria and enrolled in an NIMH sponsored study of three different doses of clozapine. As a participant in this study the patient received 100, 300, 600 mg, each for a 3-month period.
The patient was nonetheless continued on a 100 mg dose of clozapine, with the intent of using a variety of different augmentation strategies to possibly improve their clinical state. […] Throughout this period, the patient's strange and bizarre ideas persisted. They remained emotionally withdrawn, and required regular PRN medication to reduce their agitation on the ward.
Toward the end of the year 2000, the patient was treated with a drug regimen of 100 mg of clozapine, 2 mg of risperidone, and 750 mg of valproic acid. At this time, the patient agreed to augment their treatment with topiramate. The valproic acid was gradually withdrawn, and on Dec. 5, 2000 the patient was started on 50 mg of topiramate. The topiramate was increased at a rate of 50 mg per week up to a daily dosage of 200 mg where they remained for over four months. Within the first 2-3 weeks of topiramate treatment several important clinical changes were observed. […] Rather than being very certain about their ability to transmit thought to others they now are not sure that this is possible. They were also no longer certain that they actually invented “invisible steel”, but instead mostly only believed that they once thought it, although occasionally the delusional belief breaks though into their thinking. […] Second, as a result of treatment with topiramate the patient's agitation was decreased and PRN medication for agitation was no longer required.

Data set [2] deals with schizophrenia. As to the kind of experiment: Example 2 open label pilot study on topiramate as adjunctive therapy in schizophrenia. The format is in vivo, human.
Data set [3] has as its system simple and complex partial seizures and secondarily generalized seizures. To be noted: adjunctive therapy or monotherapy; cited from earlier work.
The subject of the next data set is seizures. To be noted: several rodent models of epilepsy; cited from earlier work.
Another data set has as its system kindled epilepsy. To be noted: animal model of kindled epilepsy; cited from earlier work.
The next data set deals with schizoaffective disorder. The data set can be described thus: Example 1 case study: topiramate added to olanzapine-containing regimen. The format is in vivo, human. The text has this:
The patient was a single person, diagnosed with schizoaffective disorder, who presented with a variety of problems including disorganized behavior, suspiciousness, ideas of reference, stereotyped and obsessional thinking, lack of motivation, poor hygiene, poverty of speech, oppositional behavior and intermittent suicide attempts. The patient spent virtually the entire day in bed and was awake through the night. […] Despite continuous psychiatric and pharmacological treatment, the patient remained substantially disabled by withdrawal, apathy, poverty of speech, poor hygiene, anhedonia and suspiciousness. […] In addition, the patient was seen weekly in individual psychotherapy. There were no additional active medical problems. The patient was started on topiramate with dosages increased over a period of six weeks to 400 mg/day. […] In addition, the patient's residual positive symptoms, including primary suspiciousness and ideas of reference, were improved and the patient became less fearful of interacting with other. Patient's social functioning was improved, with the patient able to hold part-time employment. […] The patient maintained their part-time employment and engaged in productive social activity several times a week. […] (Lorazepam was removed with sustained improvement.)

Data set [4] relates to schizophrenia, undifferentiated type. The data set can be described thus: Example 4 case study: topiramate added to haloperidol and risperidone. The format is in vivo, human. The source says: The patient was a person, who was first hospitalized in 1983 on an involuntary basis-due to their inability to care for themself. Upon admission, they were described as paranoid, suspicious, agitated, and delusional, and was given the diagnosis of schizophrenia, undifferentiated type. They expressed persecutory delusions saying that the Mafia was going to hurt them. They heard voices telling them that someone was going to rape their parent. After one year of hospitalization, they were discharged into the community, where they soon became unstable resulting in two suicide attempts by hanging and two more short-term hospitalizations. In 1988 the patient was admitted into a state hospital for long-term treatment where they remain to this day. Over the past decade or more, their clinical picture had remained unchanged. They had been treated with numerous anti-psychotic medications, including the newer a typical medicines with little or no benefit. Their high level of agitation and persecutory delusions often propelled them into confrontations with staff and other patients, and they were regularly treated with PRN medications or placed into seclusion for their behavior. […] The topiramate dosage was titrated at a rate of 50 mg per week up to a daily dosage of 150 mg, at which dose the patient remained for a period of 4 months. Within the first month of treatment with topiramate several important clinical changes began to emerge. […] Within 1-2 weeks, the patient was no longer in seclusion and the use of PRN medication for agitation became very rare. Second, the patient's expressions persecutory delusions or suspiciousness decreased, and they were able to join into group activities on the unit.

Data set [5] relates to schizophrenia. As to the kind of experiment: Example 2 open label pilot study on topiramate as adjunctive therapy in schizophrenia. The class given is in vivo, human. To be noted: Patient 1. The method, then: Results from Open Label Pilot Study on Topiramate as Adjunctive Therapy in the Treatment of Schizophrenia
The patient was a person who met DSM-IV diagnostic criteria for chronic undifferentiated schizophrenia. […] The patient had been maintained on a stable regimen of 20 mg olanzapine prior to initiation of the study. […] Although the patient lived in a group home with other residents, they preferred to spend most of their free time alone, watching television or staying in their room, and went to bed between 7 and 8 o'clock each night. The patient had limited social interactions in the partial hospitalization program, initiating contact with only a few friends. The patient was intrusive during groups and was unable to empathize with others within the group.
The patient was begun on topiramate at an initial dose of 25 mg/day, titrating to an optimal dosage level of 175 mg/day, which was given in two divided doses during an eight week maintenance medication phase of a clinical trial.
They also became less stereotyped in their speech, with very infrequent references to their previous recurrent theme of golf. After 12 weeks of adjunctive therapy with topiramate, the patient also appeared more realistic about their golfing skills, stating than they were an “average” golfer, as opposed to their previous assertions about winning several club tournaments.
The patient also resumed going to bed around 6:30 or 7:00 pm each night.

The mark [6] stands for this setting: topiramate 50 to 200 mg daily added to 100 mg clozapine, 2 mg risperidone.
The mark [7] stands for this setting: topiramate up to 400 mg/day added to olanzapine-containing regimen.
The mark [8] stands for this setting: period of treatment that included topiramate.
Setting [9] is: topiramate 50 to 150 mg daily added to haloperidol and risperidone.
Where [10] appears, read: topiramate 175 mg/day added to 20 mg olanzapine.
Setting [11] is: topiramate 25 to 175 mg/day added to 20 mg olanzapine.

Molecules are shown by their SMILES.

With `CCCC(CCC)C(=O)O` [Depakote, divalproex sodium], the “benefit when added to clozapine treatment” value in the data set on schizophrenia [1] (up to 5000 mg added to clozapine, 1999) is “little benefit”.

For `CN1CCN(C2=Nc3cc(Cl)ccc3Nc3ccccc32)CC1` [clozapine, 8-chloro-11-(4-methyl-1-piperazinyl)-5H-dibenzo[b,e][1,4]diazepine], in the data set with schizophrenia [1] (900 mg of clozapine), the adverse event result is given as “led to a seizure”. Further, in the data set on schizophrenia [1] (clozapine 100, 300, 600 mg, each for 3 months (NIMH study)), the response to treatment entry is “did not show any meaningful response”.

With `Cc1nc2n(c(=O)c1CCN1CCC(c3noc4cc(F)ccc34)CC1)CCCC2` [risperidone, 3-[2-[4-(6-fluoro-1,2-benzisoxazol-3-yl)piperidino]ethyl]-2-methyl-6,7,8,9-tetrahydro-4H-pyrido-[1,2-a]pyrimidin-4-one], the “adverse event when added to clozapine treatment” value in the data set with schizophrenia [1] (standard dose added to 100 mg clozapine) is “severe tremors”. In the data set with schizophrenia [1] (standard doses added to 100 mg clozapine), the “effect when added to clozapine treatment” value is “little effect”. The “benefit of clozapine augmentation with low dose risperidone” value in the data set on schizophrenia [1] (study in 2000) is on record as “lack of treatment benefit”.

In the case of `CC1(C)O[C@@H]2[C@@H](CO[C@@]3(COS(N)(=O)=O)OC(C)(C)O[C@@H]23)O1` [topiramate, 2,3:4,5-bis-O-(1-methylethylidene)-β-D-fructopyranose sulfamate], in the data set with schizophrenia [2] (Patients 2 & 3, adjunctive topiramate), the “response with regards to negative symptoms” value is listed as “did not respond significantly”. Also, in the data set on schizophrenia [2] (Patients 2 & 3, over the course of the trial), the positive symptoms result is on record as “decreases in positive symptoms”. In addition, the negative symptoms result in the data set on schizophrenia [2] (one of Patients 2 & 3, fluctuated during drug maintenance period) was “limited decrease”. For the same compound, the “side effect potentially attributable to topiramate” value with schizophrenia [2] (second of Patients 2 & 3, topiramate 100 mg/day) is “difficulties with verbal fluency and word finding”. Besides, in the data set with schizophrenia [2] (second of Patients 2 & 3, topiramate 100 mg/day lowered to 75 mg/day, dropped from study), the negative symptoms result is “significant decrease”. The “clinical state (opinion of the treatment team)” value in the data set on schizophrenia [1] (addition of topiramate) was “clear and important degree of improvement”. In the data set with schizophrenia [1] (setting [6]), the level of suspiciousness result is “decreased” and the “thought organisation / conversation” value is listed as “able to engage in a logical conversation”. In addition, the agitation entry in the data set with schizophrenia [1] (topiramate 50 to 200 mg daily added to 100 mg clozapine, 2 mg risperidone, PRN medication no longer required) is given as “decreased”. The “level of preoccupation with delusional thoughts” value with schizophrenia [1] (topiramate 50 to 200 mg daily added to 100 mg clozapine, 2 mg risperidone, within first 2-3 weeks) is listed as “obviously reduced”. Also, in data set [3], the “efficacy in treating simple and complex partial seizures and secondarily generalized seizures” value is given as “effective”. For the same compound, the seizure block result in the data set with seizures is “effectively block seizures”. Also, in the data set on kindled epilepsy, the seizure block entry was “effectively block seizures”. Also, the maintenance of improvement result in the data set with schizoaffective disorder (after 5 months, topiramate decreased to 300 mg/day) was “improvements maintained”. The maintenance of improvement result in the data set on schizoaffective disorder (after 10 months, 300 mg topiramate, 7.5 mg olanzapine, 400 mg fluvoxamine, 1 mg lorazepam daily) was “improvement was still sustained”. The maintenance of improvement entry in the data set on schizoaffective disorder (after more than 2 years, 300 mg topiramate, 7.5 mg olanzapine, 400 mg fluvoxamine daily) is “remained improved”. Further, in the data set on schizoaffective disorder (topiramate increased over six weeks to 400 mg/day, added to fluvoxamine, Depakote, lorazepam, olanzapine 10 mg, over 8 weeks), the “negative symptoms (eye contact, attention, concentration, poverty of speech, grooming, hygiene, withdrawal)” value was “significant improvement”. Moreover, in the data set with schizoaffective disorder (setting [7]), the “residual positive symptoms (suspiciousness, ideas of reference)” value is “improved” and the social functioning entry is “improved”. Further, in data set [4] (setting [8]), the “intensity of positive symptoms (auditory hallucinations, delusions of persecution)” value was “reduced in occurrence and severity”; the social withdrawal entry was “less socially withdrawn”. Also, in data set [4] (setting [9]), the “expressions of persecutory delusions or suspiciousness” value was “decreased” and the negative symptoms result is reported as “fewer negative symptoms”. Also, the level of agitation entry in data set [4] (topiramate 50 to 150 mg daily added to haloperidol and risperidone, within first month) is listed as “reduced dramatically”. In the data set with schizophrenia [5] (setting [10]), the “change in the Positive or General Scales of the PANSS” value is on record as “did not show any consistent, significant change” and the “decrease in the Negative Scale score (PANSS) from baseline” value worked out at 7 points. Moreover, in the data set with schizophrenia [5] (setting [11]), the tolerability result is reported as “well tolerated”; the “vital signs and laboratory values” is “remained within the normal range”. Further, the “Negative Scale score after discontinuation of topiramate” value in the data set with schizophrenia [5] (upon completion of the study protocol) is reported as “increase in the Negative Scale score”.
